This note sets out measurements from ChEMBL document CHEMBL2016525, “Discovery of a novel acetylcholinesterase inhibitor by structure-based virtual screening techniques” (Bioorg Med Chem Lett, 2012).

Broadly, the IC50 is the concentration that inhibits the measured activity by half. What is called logD is lipophilicity at a set pH, counting ionised and neutral species. Read a low logD as lower lipophilicity.

In data set [1] the target is Acetylcholinesterase (Electrophorus electricus, UniProt O42275). As to the kind of experiment: (§1) Inhibition of electric eel AChE by Ellman's method. (In Ellman's method for cholinesterases, released thiocholine reacts with DTNB.)
A short description of data set [2]: Lipophilicity, log D of the compound. Type of data set: physicochemical. To be noted: octanol/water.
Data set [3] has as its target Acetylcholinesterase (Electrophorus electricus) (UniProt O42275). The description is as §1.

SMILES strings stand for the structures. Where only a bound is given, the exact number is not on record here.

Acetylcholinesterase, sequence (O42275 whole entry): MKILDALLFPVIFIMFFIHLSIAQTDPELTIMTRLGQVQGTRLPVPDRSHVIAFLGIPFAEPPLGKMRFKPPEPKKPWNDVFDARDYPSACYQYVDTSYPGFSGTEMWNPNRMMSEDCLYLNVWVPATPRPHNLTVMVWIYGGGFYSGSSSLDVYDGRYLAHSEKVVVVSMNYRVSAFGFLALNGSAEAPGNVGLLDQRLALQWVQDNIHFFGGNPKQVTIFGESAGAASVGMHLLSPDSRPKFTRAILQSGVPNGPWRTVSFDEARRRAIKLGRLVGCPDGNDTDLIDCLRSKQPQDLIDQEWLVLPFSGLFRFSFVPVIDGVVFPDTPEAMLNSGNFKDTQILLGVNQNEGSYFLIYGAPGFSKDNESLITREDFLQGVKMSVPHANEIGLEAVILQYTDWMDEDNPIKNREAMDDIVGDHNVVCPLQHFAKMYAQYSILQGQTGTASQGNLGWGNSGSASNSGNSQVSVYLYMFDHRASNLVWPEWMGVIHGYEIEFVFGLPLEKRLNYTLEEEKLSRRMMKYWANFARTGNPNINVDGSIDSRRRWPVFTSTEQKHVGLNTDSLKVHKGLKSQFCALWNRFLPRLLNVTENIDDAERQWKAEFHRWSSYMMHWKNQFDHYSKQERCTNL
Acetylcholinesterase (Electrophorus electricus), sequence (O42275 24-633 limits assumed): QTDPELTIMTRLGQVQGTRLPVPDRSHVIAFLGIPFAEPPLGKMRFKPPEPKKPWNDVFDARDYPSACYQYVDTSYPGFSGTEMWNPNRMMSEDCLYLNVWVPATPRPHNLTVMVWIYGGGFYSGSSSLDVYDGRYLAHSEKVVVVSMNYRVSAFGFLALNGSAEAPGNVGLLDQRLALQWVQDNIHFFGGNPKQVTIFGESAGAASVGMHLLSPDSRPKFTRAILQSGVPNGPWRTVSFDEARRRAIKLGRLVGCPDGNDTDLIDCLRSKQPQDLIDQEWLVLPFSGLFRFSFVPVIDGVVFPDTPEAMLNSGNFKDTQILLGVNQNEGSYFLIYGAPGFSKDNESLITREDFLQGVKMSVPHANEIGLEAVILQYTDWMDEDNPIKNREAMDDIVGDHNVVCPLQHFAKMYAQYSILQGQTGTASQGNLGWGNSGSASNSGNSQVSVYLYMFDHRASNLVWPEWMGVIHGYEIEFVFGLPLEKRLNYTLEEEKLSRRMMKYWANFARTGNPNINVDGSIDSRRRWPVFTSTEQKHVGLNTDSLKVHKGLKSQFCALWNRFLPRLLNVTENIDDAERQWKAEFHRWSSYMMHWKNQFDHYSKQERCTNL

For the molecule `O=C1Nc2ccccc2/C1=N/NC(=O)c1ccc(Nc2nc(-c3ccccc3)cs2)cc1`, the half-inhibitory concentration (IC50) in data set [1] amounted to 9.5 µM. Moreover, the logD in data set [2] was determined as 4.26.
In data set [2], `COc1cc(/C=C/C(=O)NCCCCNc2c3c(nc4ccccc24)CCCC3)ccc1O` came in with a logD of 5.33.
`CCOc1cc(/C=N/NC(=O)c2cc(-c3cccc(OC)c3)n[nH]2)ccc1O` came in with an IC50 in data set [1] of 7.8 µM. Besides, the logD in data set [2] is 3.44.
`COc1cc(/C=C/C(=O)NCCCCCNc2c3c(nc4ccccc24)CCCC3)ccc1O` returned a logD in data set [2] of 5.78.
`O=C1Nc2cc(S(=O)(=O)Nc3ccc(Oc4ccccc4)cc3)cc3cccc1c23` registered an IC50 in data set [1] of 9.9 µM. Besides, the logD in data set [2] is 3.74.
Take `CC1CCc2c(sc3nc(SCC(=O)Nc4ccc(S(N)(=O)=O)cc4)n(N)c(=O)c23)C1` (configuration not stated): the inhibition result in data set [3] was “Dose-dependent effect”. Moreover, in data set [1], half-maximal inhibition (IC50) was put at 5.9 µM. In data set [2], the logD worked out at 2.3.
The like results for `CCOc1cc(C(=O)NNC(=S)Nc2ccc(S(N)(=O)=O)cc2)cc(OCC)c1OCC` were, in that order, “Dose-dependent effect”, 4.8 µM and 2.65.
Molecule `COc1ccc(NC(=O)c2ccc(NS(=O)(=O)c3cc4c5c(cccc5c3)C(=O)N4)cc2)cc1` registered an IC50 in data set [1] greater than 100 µM. Moreover, the logD in data set [2] was found to be 2.95.
The like results for `COc1cc(/C=N/NC(=O)CSc2nnc(-c3ccc(OC)c(OC)c3)n2-c2ccccc2)ccc1O` were, in that order, greater than 100 µM and 4.4.
The like results for `COc1cc(/C=N/NC(=O)c2ccc(COc3c(F)c(F)c(F)c(F)c3F)cc2)ccc1O` were, in that order, 6.7 µM and 5.02.
The like results for `Cc1cccc(OCC(=O)Nc2cccc(Oc3ccc4c(c3)C(=O)NC4=O)c2)c1C` were, in that order, 14.9 µM and 3.81.
In the case of `C=CCn1c2ccccc2c2nnc(SCC(=O)Nc3ccc(S(N)(=O)=O)cc3)nc21`, the inhibition entry in data set [3] is “Dose-dependent effect”. Also, the IC50 in data set [1] amounted to 6.5 µM. The logD in data set [2] came to 1.34.
For `C=CCn1c(SCCCC(=O)Nc2ccc(S(N)(=O)=O)cc2)nc2sc3c(c2c1=O)CCCC3`, in data set [3], the inhibition entry is “Dose-dependent effect”. In data set [1], this molecule had a half-inhibitory concentration (IC50) of 2.5 µM. Besides, the logD in data set [2] came to 3.93.
Take `COc1cc(/C=N/NC(=O)c2ccc(COc3cccc(Cl)c3)o2)cc(Br)c1O`: the 50% inhibitory concentration (IC50) in data set [1] was 9.8 µM. For the same molecule, the logD in data set [2] was 4.86.
Consider `CCNS(=O)(=O)c1ccc(NC(=O)c2ccc(Cn3nc(C)cc3C)o2)cc1`, for which, in data set [3], the inhibition entry was “Dose-dependent effect”. This molecule also displayed an IC50 in data set [1] of 1.5 µM. Also, in data set [2], the log distribution coefficient (logD) turned out to be 2.01.
Take `C=C(C)COc1cc(C)cc2oc(=O)c(CC(=O)NCc3ccc(S(N)(=O)=O)cc3)c(C)c12`: the IC50 in data set [1] was 12.3 µM. In addition, the logD in data set [2] came out at 3.4.
The like results for `CC(=O)Nc1ccc(-c2nnc(SCC(=O)Nc3ccc(Br)cc3Cl)n2C)cc1` were, in that order, 10.5 µM and 3.61.
